The supplement of paper PMC5579334

What was measured:
[1] = tested on: YST-1; experiment: relative IC50 (inflection point of fitted dose-response curve, CellTiter-Glo viability, 72 h; top asymptote may be below 50% inhibition); higher = less potent
In short: (§1)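 MPNST cell lines and primary human Schwann cells were seeded at 750–1000 cells per well into 384-well plates preprinted with each compound at five concentrations in 10-fold steps, then incubated 72 h at 37 °C, 5% CO2. CellTiter-Glo ATP luminescence gave viability, scaled between vehicle and positive-control wells, with duplicates averaged where present. Curves were fitted with a four-parameter logistic model. Percent inhibition refers to the top concentration, while drug sensitivity score and relative IC50, censored at the top concentration, come from these fits.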

[2] = tested on: S462; experiment: as above
In short: as §1

[3] = tested on: HSC1; experiment: as above
In short: as §1

[4] = tested on: HS-PSS; experiment: as above
In short: as §1

[5] = tested on: ST8814; experiment: as above
In short: as §1

[6] = tested on: STS26T; experiment: as above
In short: as §1

[7] = tested on: HSC2; experiment: as above
In short: as §1

[8] = tested on: HS-Sch-2; experiment: as above
In short: as §1

[9] = tested on: S1507-2; experiment: as above
In short: as §1

[10] = tested on: HSC1; experiment: relative IC50 (inflection point of fitted dose-response curve, CellTox-Green cytotoxicity, 72 h; top asymptote may be below 50%); higher = less potent
In short: (§2)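 For 72 h at 37 °C, MPNST cell lines and primary human Schwann cells were exposed in 384-well plates to five 10-fold compound dilutions. CellTox-Green, added before seeding at a final 1:1000 dilution, gave fluorescence from DNA released by disrupted cells. Signals were scaled to vehicle and positive-control wells, cultures failing plate quality control were left out, and four-parameter logistic fits were applied. Relative IC50 and drug sensitivity score were derived from the fits, with IC50 censored at the top concentration.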

[11] = tested on: HS-PSS; experiment: as above
In short: as §2

[12] = tested on: ST8814; experiment: as above
In short: as §2

[13] = tested on: STS26T; experiment: as above
In short: as §2

[14] = tested on: HSC2; experiment: as above
In short: as §2

[15] = tested on: S1507-2; experiment: as above
In short: as §2

SMILES: O=C(CCBr)N1CCN(C(=O)CCBr)CC1 [Pipobroman]
- relative IC50 [1]: > 10000 nM
- relative IC50 [2]: > 10000 nM
- relative IC50 [3]: > 10000 nM
- relative IC50 [4]: > 10000 nM
- relative IC50 [5]: > 10000 nM
- relative IC50 [6]: > 10000 nM
- relative IC50 [7]: > 10000 nM
- relative IC50 [8]: > 10000 nM
- relative IC50 [9]: > 10000 nM
- relative IC50 [10]: > 10000 nM
- relative IC50 [11]: > 10000 nM
- relative IC50 [12]: > 10000 nM
- relative IC50 [13]: > 10000 nM
- relative IC50 [14]: > 10000 nM
- relative IC50 [15]: > 10000 nM

SMILES: CCc1c2c(nc3ccc(OC(=O)N4CCC(N5CCCCC5)CC4)cc13)-c1cc3c(c(=O)n1C2)COC(=O)[C@]3(O)CC [Irinotecan]
- relative IC50 [1]: 359 nM
- relative IC50 [2]: 1310 nM
- relative IC50 [3]: 406 nM
- relative IC50 [4]: 2610 nM
- relative IC50 [5]: 1210 nM
- relative IC50 [6]: 1790 nM
- relative IC50 [7]: 822 nM
- relative IC50 [8]: 1340 nM
- relative IC50 [9]: 1580 nM
- relative IC50 [10]: 2660 nM
- relative IC50 [11]: 2130 nM
- relative IC50 [12]: 1940 nM
- relative IC50 [13]: 2360 nM
- relative IC50 [14]: 2240 nM
- relative IC50 [15]: 3670 nM

SMILES: O=C(CCCCCCC(=O)Nc1ccccc1)NO [Vorinostat]
- relative IC50 [1]: 687 nM
- relative IC50 [2]: 2090 nM
- relative IC50 [3]: 1310 nM
- relative IC50 [4]: 2820 nM
- relative IC50 [5]: 1690 nM
- relative IC50 [6]: 2250 nM
- relative IC50 [7]: 1570 nM
- relative IC50 [8]: 1770 nM
- relative IC50 [9]: 1680 nM
- relative IC50 [10]: 3780 nM
- relative IC50 [11]: 2450 nM
- relative IC50 [12]: 3150 nM
- relative IC50 [13]: 2570 nM
- relative IC50 [14]: 3430 nM
- relative IC50 [15]: 2660 nM

SMILES: CC[C@@]1(O)C(=O)OCc2c1cc1n(c2=O)Cc2cc3c(CN(C)C)c(O)ccc3nc2-1 [Topotecan]
- relative IC50 [1]: 44.1 nM
- relative IC50 [2]: 52.4 nM
- relative IC50 [3]: 123 nM
- relative IC50 [4]: 323 nM
- relative IC50 [5]: 42.5 nM
- relative IC50 [6]: 202 nM
- relative IC50 [7]: 90.9 nM
- relative IC50 [8]: 136 nM
- relative IC50 [9]: 173 nM
- relative IC50 [10]: 50.8 nM
- relative IC50 [11]: 869 nM
- relative IC50 [12]: 23.3 nM
- relative IC50 [13]: 197 nM
- relative IC50 [14]: 237 nM
- relative IC50 [15]: 550 nM

SMILES: Cc1[nH]c2ccccc2c1CCNCc1ccc(/C=C/C(=O)NO)cc1 [Panobinostat]
- relative IC50 [1]: 9.07 nM
- relative IC50 [2]: 14.2 nM
- relative IC50 [3]: 20.8 nM
- relative IC50 [4]: 54.8 nM
- relative IC50 [5]: 15 nM
- relative IC50 [6]: 35.4 nM
- relative IC50 [7]: 37.2 nM
- relative IC50 [8]: 25.4 nM
- relative IC50 [9]: 11.2 nM
- relative IC50 [10]: 125 nM
- relative IC50 [11]: 89.1 nM
- relative IC50 [12]: 36.6 nM
- relative IC50 [13]: 64.9 nM
- relative IC50 [14]: 122 nM
- relative IC50 [15]: 30.9 nM

SMILES: COc1cc([C@@H]2c3cc4c(cc3[C@@H](O[C@@H]3O[C@@H]5CO[C@@H](c6cccs6)O[C@H]5[C@H](O)[C@H]3O)[C@H]3COC(=O)[C@H]23)OCO4)cc(OC)c1O [Teniposide]
- relative IC50 [1]: 50.1 nM
- relative IC50 [2]: 112 nM
- relative IC50 [3]: 68.8 nM
- relative IC50 [4]: 1240 nM
- relative IC50 [5]: 193 nM
- relative IC50 [6]: 227 nM
- relative IC50 [7]: 88.5 nM
- relative IC50 [8]: 482 nM
- relative IC50 [9]: 314 nM
- relative IC50 [10]: 1150 nM
- relative IC50 [11]: 3010 nM
- relative IC50 [12]: 219 nM
- relative IC50 [13]: 266 nM
- relative IC50 [14]: 1430 nM
- relative IC50 [15]: 1410 nM
